This data set is described as follows: Tissue distribution (radiometric analysis of excised organs) after tail vein injection of radiolabeled fatty acid analogs in rats. Format: in vivo, Sprague Dawley rats. The settings on record: rat. How it is done:
Pharmacokinetic characterization was accomplished by radiometric analysis of heart, blood, lung, kidney, liver and other tissue at various times following administration of the 99mTc-labeled fatty acid analogs to rats. […] Six new compounds were evaluated at up to four time points each (5, 15, 60, and 120 minutes) with a minimum of three animals per time point. Non-anesthetized animals were injected with 20-50 μCi in 100 μl via the tail vein and sacrificed at increasing time points post injection. The organs were excised and counted in a gamma counter. Experiments were also conducted to compare the effects of injection media using 10% ethanol, 10% bovine serum albumin and 7% ursodeoxycholic acid on distribution.

For `CC(CCCCCCCCCCCCc1ccc(I)cc1)CC(=O)O` (centres unmarked) [BMIPP], the “Percent injected dose per gram, Blood” value (15-min post injection, blood) was 1.30 ± 0.19 Percent injected dose per gram. For the same compound, the “Percent injected dose per gram, Heart” value (15-min post injection, heart) is 4.60 ± 0.63 Percent injected dose per gram. Besides, the “Percent injected dose per gram, Kidneys” value (15-min post injection, kidneys) is 4.09 ± 0.82 Percent injected dose per gram. Also, under “15-min post injection, liver”, the “Percent injected dose per gram, Liver” value is on record as 2.97 ± 0.56 Percent injected dose per gram. In addition, the “Percent injected dose per gram, Lung” value (15-min post injection, lung) is given as 1.83 ± 0.22 Percent injected dose per gram. Moreover, the heart-to-blood ratio by setting is: (at 15 minutes) 2.2; (at 60 minutes) 1.6. The “blood retention / clearance (in words)” value (blood) is given as “slow blood clearance”. The “heart accumulation / extraction (in words)” value (heart) was “high extraction into the heart”. In addition, the “uptake in the heart” value by setting is: (heart, at 15 minutes) 3.49 percent per organ; (heart, at 60 minutes) 1.62 percent per organ. Moreover, the “less heart uptake with ethanol injection media than with ursodeoxycholic acid” value (heart, 10% ethanol versus 7% ursodeoxycholic acid injection media) was approximately 75%. In addition, the liver activity reads like this: (liver, end of the 45 minute period (60 minutes)) 7.2 percent per organ; (liver, start of the 45 minute period (15 minutes)) 19.7 percent per organ.

The values are drawn from US7556794B2, “Pendant fatty acid imaging agents” (Molecular Insight Pharmaceuticals, Inc., priority 2002, dated 2009).
